Test results reported in US6479435B1, “Diaryl ethers and processes for their preparation and herbicidal and desiccant compositions containing them” (ISK Americas Incorporated, priority 1997, dated 2002).

Tests used:
Type in all cases: in vivo
[1] = test system: upland rice (Oryza sp., var.Tebonnet, RICE); experiment: Pre-emerge greenhouse test, crop damage rating; conditions: 14 days after application, rating scale 0-100
How it was run: (§1)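 Visual 0–100 injury rating (100 = all plants dead) taken 14 days after treatment. Rates of 125–1000 g ai/ha in acetone, 187 l/ha, were sprayed onto soil one day post-sowing; pots were surface-watered to incorporate, then bottom-watered.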

[2] = test system: field corn (Zea mays L., var. Dekalb 535, CORN); experiment: Pre-emerge greenhouse test, crop damage rating; conditions: 14 days after application, rating scale 0-100
How it was run: as §1

[3] = test system: soybean (Glycine max L., var. Pella 86, SOY); experiment: Pre-emerge greenhouse test, crop damage rating; conditions: 14 days after application, rating scale 0-100
How it was run: as §1

[4] = test system: soybean (Glycine max L., var. Pella 86, SOY); experiment: Post-emerge greenhouse test, crop damage rating; conditions: 14 days after application
How it was run: (§2)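 Scores use a 0 (no damage) to 100 (complete kill) scale, taken 14 days after a foliar spray. Acetone solutions with 0.25% v/v non-ionic surfactant were applied by track sprayer at 187 l/ha and 63-1000 g ai/ha to bottom-watered 2-3 leaf plants.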

[5] = test system: common ragweed (Ambrosia artemisiifolia L., AMBEL); experiment: Post-emerge greenhouse herbicide test, phytotoxicity rating; conditions: 14 days after application
How it was run: as §2

[6] = test system: large crabgrass (Digitaria sanguinalis, DIGSA); experiment: Pre-emerge greenhouse herbicide test, phytotoxicity rating; conditions: 14 days after application, rating scale 0-100
How it was run: as §1

[7] = test system: redroot pigweed (Amaranthus retroflexus, AMARE); experiment: as above; conditions: 14 days after application, rating scale 0-100
How it was run: as §1

[8] = test system: barnyardgrass (Echinochloa crusgalli, ECHCG); experiment: as above; conditions: 14 days after application, rating scale 0-100
How it was run: as §1

[9] = test system: sicklepod (Cassia obtusifolia, CASOB); experiment: as above; conditions: 14 days after application, rating scale 0-100
How it was run: as §1

[10] = test system: ivyleaf morningglory (Ipomoea hederacea, IPOHE); experiment: as above; conditions: 14 days after application, rating scale 0-100
How it was run: as §1

[11] = test system: common ragweed (Ambrosia artemisiifolia L., AMBEL); experiment: as above; conditions: 14 days after application, rating scale 0-100
How it was run: as §1

[12] = test system: Johnsongrass (Sorghum halepense, SORHA); experiment: as above; conditions: 14 days after application, rating scale 0-100
How it was run: as §1

[13] = test system: velvetleaf (Abutilon theophrasti, ABUTH); experiment: as above; conditions: 14 days after application, rating scale 0-100
How it was run: as §1

[14] = test system: green foxtail (Setaria viridis, SETVI); experiment: as above; conditions: 14 days after application, rating scale 0-100
How it was run: as §1

[15] = test system: lambsquarters (Chenopodium album, CHEAL); experiment: as above; conditions: 14 days after application, rating scale 0-100
How it was run: as §1

[16] = test system: upland rice (Oryza sp., var.Tebonnet, RICE); experiment: Post-emerge greenhouse test, crop damage rating; conditions: 14 days after application
How it was run: as §2

[17] = test system: field corn (Zea mays L., var. Dekalb 535, CORN); experiment: Post-emerge greenhouse test, crop damage rating; conditions: 14 days after application
How it was run: as §2

[18] = test system: large crabgrass (Digitaria sanguinalis, DIGSA); experiment: Post-emerge greenhouse herbicide test, phytotoxicity rating; conditions: 14 days after application
How it was run: as §2

[19] = test system: redroot pigweed (Amaranthus retroflexus, AMARE); experiment: as above; conditions: 14 days after application
How it was run: as §2

[20] = test system: barnyardgrass (Echinochloa crusgalli, ECHCG); experiment: as above; conditions: 14 days after application
How it was run: as §2

[21] = test system: sicklepod (Cassia obtusifolia, CASOB); experiment: as above; conditions: 14 days after application
How it was run: as §2

[22] = test system: ivyleaf morningglory (Ipomoea hederacea, IPOHE); experiment: as above; conditions: 14 days after application
How it was run: as §2

[23] = test system: Johnsongrass (Sorghum halepense, SORHA); experiment: as above; conditions: 14 days after application
How it was run: as §2

[24] = test system: velvetleaf (Abutilon theophrasti, ABUTH); experiment: as above; conditions: 14 days after application
How it was run: as §2

[25] = test system: green foxtail (Setaria viridis, SETVI); experiment: as above; conditions: 14 days after application
How it was run: as §2

[26] = test system: lambsquarters (Chenopodium album, CHEAL); experiment: as above; conditions: 14 days after application
How it was run: as §2

COc1cc(OC)nc(Oc2cc(-n3nnn(CCCF)c3=O)c(F)cc2Cl)n1 [Compound 6-15]
crop damage rating RICE ([1]; 125 g ai/ha): 0
crop damage rating RICE ([1]; 500 g ai/ha): 10
crop damage rating CORN ([2]; 125 g ai/ha): 0
crop damage rating CORN ([2]; 500 g ai/ha): 100
crop damage rating SOY ([3]; 125 g ai/ha): 0
crop damage rating SOY ([3]; 500 g ai/ha): 0
SOY crop damage rating (0-100) ([4]; 63 g al/ha): 0
SOY crop damage rating (0-100) ([4]; 500 g al/ha): 40
AMBEL phytotoxicity rating (0-100) ([5]; 63 g al/ha): 0
AMBEL phytotoxicity rating (0-100) ([5]; 500 g al/ha): 20
phytotoxicity rating DIGSA ([6]; 125 g ai/ha): 10
phytotoxicity rating DIGSA ([6]; 500 g ai/ha): 60
phytotoxicity rating AMARE ([7]; 125 g ai/ha): 30
phytotoxicity rating AMARE ([7]; 500 g ai/ha): 100
phytotoxicity rating ECHCG ([8]; 125 g ai/ha): 0
phytotoxicity rating ECHCG ([8]; 500 g ai/ha): 0
phytotoxicity rating CASOB ([9]; 125 g ai/ha): 0
phytotoxicity rating CASOB ([9]; 500 g ai/ha): 30
phytotoxicity rating IPOHE ([10]; 125 g ai/ha): 0
phytotoxicity rating IPOHE ([10]; 500 g ai/ha): 10
phytotoxicity rating AMBEL ([11]; 125 g ai/ha): 0
phytotoxicity rating AMBEL ([11]; 500 g ai/ha): 0
phytotoxicity rating SORHA ([12]; 125 g ai/ha): 0
phytotoxicity rating SORHA ([12]; 500 g ai/ha): 10
phytotoxicity rating ABUTH ([13]; 125 g ai/ha): 20
phytotoxicity rating ABUTH ([13]; 500 g ai/ha): 100
phytotoxicity rating SETVI ([14]; 125 g ai/ha): 10
phytotoxicity rating SETVI ([14]; 500 g ai/ha): 90
phytotoxicity rating CHEAL ([15]; 125 g ai/ha): 20
phytotoxicity rating CHEAL ([15]; 500 g ai/ha): 100
RICE crop damage rating (0-100) ([16]; 63 g al/ha): 0
RICE crop damage rating (0-100) ([16]; 500 g al/ha): 5
CORN crop damage rating (0-100) ([17]; 63 g al/ha): 0
CORN crop damage rating (0-100) ([17]; 500 g al/ha): 5
DIGSA phytotoxicity rating (0-100) ([18]; 63 g al/ha): 0
DIGSA phytotoxicity rating (0-100) ([18]; 500 g al/ha): 0
AMARE phytotoxicity rating (0-100) ([19]; 63 g al/ha): 20
AMARE phytotoxicity rating (0-100) ([19]; 500 g al/ha): 95
ECHCG phytotoxicity rating (0-100) ([20]; 63 g al/ha): 0
ECHCG phytotoxicity rating (0-100) ([20]; 500 g al/ha): 0
CASOB phytotoxicity rating (0-100) ([21]; 63 g al/ha): 20
CASOB phytotoxicity rating (0-100) ([21]; 500 g al/ha): 40
IPOHE phytotoxicity rating (0-100) ([22]; 63 g al/ha): 20
IPOHE phytotoxicity rating (0-100) ([22]; 500 g al/ha): 70
SORHA phytotoxicity rating (0-100) ([23]; 63 g al/ha): 0
SORHA phytotoxicity rating (0-100) ([23]; 500 g al/ha): 10
ABUTH phytotoxicity rating (0-100) ([24]; 63 g al/ha): 60
ABUTH phytotoxicity rating (0-100) ([24]; 500 g al/ha): 99
SETVI phytotoxicity rating (0-100) ([25]; 63 g al/ha): 0
SETVI phytotoxicity rating (0-100) ([25]; 500 g al/ha): 40
CHEAL phytotoxicity rating (0-100) ([26]; 63 g al/ha): 50
CHEAL phytotoxicity rating (0-100) ([26]; 500 g al/ha): 90

O=c1n(CCCF)nnn1-c1cc(Oc2ncc(Br)cn2)c(Cl)cc1F [Compound 6-16]
crop damage rating RICE ([1]; 125 g ai/ha): 0
crop damage rating RICE ([1]; 500 g ai/ha): 50
crop damage rating CORN ([2]; 125 g ai/ha): 0
crop damage rating CORN ([2]; 500 g ai/ha): 15
crop damage rating SOY ([3]; 125 g ai/ha): 0
crop damage rating SOY ([3]; 500 g ai/ha): 10
SOY crop damage rating (0-100) ([4]; 63 g al/ha): 40
SOY crop damage rating (0-100) ([4]; 500 g al/ha): 60
AMBEL phytotoxicity rating (0-100) ([5]; 63 g al/ha): 15
AMBEL phytotoxicity rating (0-100) ([5]; 500 g al/ha): 20
phytotoxicity rating DIGSA ([6]; 125 g ai/ha): 80
phytotoxicity rating DIGSA ([6]; 500 g ai/ha): 100
phytotoxicity rating AMARE ([7]; 125 g ai/ha): 100
phytotoxicity rating AMARE ([7]; 500 g ai/ha): 100
phytotoxicity rating ECHCG ([8]; 125 g ai/ha): 0
phytotoxicity rating ECHCG ([8]; 500 g ai/ha): 90
phytotoxicity rating CASOB ([9]; 125 g ai/ha): 50
phytotoxicity rating CASOB ([9]; 500 g ai/ha): 30
phytotoxicity rating IPOHE ([10]; 125 g ai/ha): 50
phytotoxicity rating IPOHE ([10]; 500 g ai/ha): 30
phytotoxicity rating AMBEL ([11]; 125 g ai/ha): 0
phytotoxicity rating AMBEL ([11]; 500 g ai/ha): 70
phytotoxicity rating SORHA ([12]; 125 g ai/ha): 40
phytotoxicity rating SORHA ([12]; 500 g ai/ha): 80
phytotoxicity rating ABUTH ([13]; 125 g ai/ha): 100
phytotoxicity rating ABUTH ([13]; 500 g ai/ha): 100
phytotoxicity rating SETVI ([14]; 125 g ai/ha): 80
phytotoxicity rating SETVI ([14]; 500 g ai/ha): 100
phytotoxicity rating CHEAL ([15]; 125 g ai/ha): 100
phytotoxicity rating CHEAL ([15]; 500 g ai/ha): 100
RICE crop damage rating (0-100) ([16]; 63 g al/ha): 30
RICE crop damage rating (0-100) ([16]; 500 g al/ha): 40
CORN crop damage rating (0-100) ([17]; 63 g al/ha): 10
CORN crop damage rating (0-100) ([17]; 500 g al/ha): 20
DIGSA phytotoxicity rating (0-100) ([18]; 63 g al/ha): 0
DIGSA phytotoxicity rating (0-100) ([18]; 500 g al/ha): 0
AMARE phytotoxicity rating (0-100) ([19]; 63 g al/ha): 70
AMARE phytotoxicity rating (0-100) ([19]; 500 g al/ha): 100
ECHCG phytotoxicity rating (0-100) ([20]; 63 g al/ha): 0
ECHCG phytotoxicity rating (0-100) ([20]; 500 g al/ha): 30
CASOB phytotoxicity rating (0-100) ([21]; 63 g al/ha): 0
CASOB phytotoxicity rating (0-100) ([21]; 500 g al/ha): 30
IPOHE phytotoxicity rating (0-100) ([22]; 63 g al/ha): 95
IPOHE phytotoxicity rating (0-100) ([22]; 500 g al/ha): 95
SORHA phytotoxicity rating (0-100) ([23]; 63 g al/ha): 0
SORHA phytotoxicity rating (0-100) ([23]; 500 g al/ha): 20
ABUTH phytotoxicity rating (0-100) ([24]; 63 g al/ha): 100
ABUTH phytotoxicity rating (0-100) ([24]; 500 g al/ha): 100
SETVI phytotoxicity rating (0-100) ([25]; 63 g al/ha): 20
SETVI phytotoxicity rating (0-100) ([25]; 500 g al/ha): 50
CHEAL phytotoxicity rating (0-100) ([26]; 63 g al/ha): 80
CHEAL phytotoxicity rating (0-100) ([26]; 500 g al/ha): 100
